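96-well plates; 48 h exposure; 5 concentrations. Endpoints by linear interpolation between flanking doses. Not reached: highest tested concentration assigned. The concentration for 50% growth inhibition is given as GI50.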 Activity calls are given as the source filed them. No stated cut-off is given here; in the data, active = GI50 up to about 1.1 µM and inactive = higher.
Legend:
Experiment in all cases: growth of human tumour cells (NCI), 48 h
LOX IMVI = system: LOX IMVI
HOP-92 = system: HOP-92
SF-539 = system: SF-539
OVCAR-5 = system: OVCAR-5
OVCAR-3 = system: OVCAR-3
COLO 205 = system: COLO 205
NCI-H226 = system: NCI-H226
M19-MEL = system: M19-MEL
CAKI-1 = system: CAKI-1
UACC-257 = system: UACC-257
A549 = system: A549
SK-OV-3 = system: SK-OV-3
RXF 393 = system: RXF 393
SF-295 = system: SF-295
A498 = system: A498
ACHN = system: ACHN
TK-10 = system: TK-10
HCT-15 = system: HCT-15

Compound	GI50 (LOX IMVI)	GI50 (HOP-92)	GI50 (SF-539)	GI50 (OVCAR-5)	GI50 (OVCAR-3)	GI50 (COLO 205)	GI50 (NCI-H226)	GI50 (M19-MEL)	GI50 (CAKI-1)	GI50 (UACC-257)	GI50 (A549)	GI50 (SK-OV-3)	GI50 (RXF 393)	GI50 (SF-295)	GI50 (A498)	GI50 (ACHN)	GI50 (TK-10)	GI50 (HCT-15)
O=C(O)/C=C/c1c[nH]cn1	> 500 µM (inactive)	> 500 µM (inactive)	> 500 µM (inactive)	> 500 µM (inactive)	> 500 µM (inactive)	> 500 µM (inactive)	> 500 µM (inactive)	> 500 µM (inactive)	> 500 µM (inactive)	> 500 µM (inactive)	> 500 µM (inactive)	> 500 µM (inactive)	> 500 µM (inactive)	> 500 µM (inactive)	> 500 µM (inactive)	–	–	–
COc1ccc(-c2nnc3c4ccccc4sn23)cc1	14.8 µM (inactive)	34.9 µM (inactive)	32.7 µM (inactive)	> 100 µM (inactive)	17.1 µM (inactive)	42.4 µM (inactive)	–	22.5 µM (inactive)	–	20 µM (inactive)	25.4 µM (inactive)	–	6.43 µM (inactive)	–	–	28 µM (inactive)	> 100 µM (inactive)	6.28 µM
CCC1CN2CCC1CC2 (configuration not stated)	> 100 µM (inactive)	–	> 100 µM (inactive)	> 100 µM (inactive)	> 100 µM (inactive)	> 100 µM (inactive)	> 100 µM (inactive)	> 100 µM (inactive)	–	> 91.4 µM (inactive)	> 100 µM (inactive)	> 100 µM (inactive)	> 100 µM (inactive)	> 100 µM (inactive)	> 100 µM (inactive)	–	–	> 100 µM
O=C1C2C(C(=O)N1OS(=O)(=O)c1ccccc1)N(Cc1ccccc1)C(=O)N2Cc1ccccc1 (configuration not stated)	> 100 µM (inactive)	> 100 µM (inactive)	> 100 µM (inactive)	> 100 µM (inactive)	> 100 µM (inactive)	> 100 µM (inactive)	> 100 µM (inactive)	> 100 µM (inactive)	> 100 µM (inactive)	> 100 µM (inactive)	> 100 µM (inactive)	> 100 µM (inactive)	70.8 µM (inactive)	> 100 µM (inactive)	> 100 µM (inactive)	> 100 µM (inactive)	> 100 µM (inactive)	> 100 µM
Brc1ccc(C2CC(c3cccc4ccccc34)=Nc3ccccc3S2)cc1 (configuration not stated)	44.8 µM (inactive)	> 100 µM (inactive)	> 100 µM (inactive)	> 100 µM (inactive)	–	> 100 µM (inactive)	> 100 µM (inactive)	40.2 µM (inactive)	> 100 µM (inactive)	> 100 µM (inactive)	> 100 µM (inactive)	> 100 µM (inactive)	> 100 µM (inactive)	37.3 µM (inactive)	> 100 µM (inactive)	> 100 µM (inactive)	> 100 µM (inactive)	35.3 µM
CC(=O)N(CCN1C(=O)c2ccccc2C1=O)CCN1C(=O)c2ccccc2C1=O	> 100 µM (inactive)	> 100 µM (inactive)	–	–	> 100 µM (inactive)	> 100 µM (inactive)	–	> 100 µM (inactive)	> 100 µM (inactive)	> 100 µM (inactive)	> 100 µM (inactive)	> 100 µM (inactive)	> 100 µM (inactive)	> 100 µM (inactive)	> 100 µM (inactive)	> 100 µM (inactive)	> 100 µM (inactive)	> 100 µM
COc1c(Cl)cc(S(=O)O)cc1Cl	> 100 µM (inactive)	–	> 100 µM (inactive)	> 100 µM (inactive)	> 100 µM (inactive)	–	–	> 100 µM (inactive)	–	> 100 µM (inactive)	–	> 100 µM (inactive)	> 100 µM (inactive)	–	> 100 µM (inactive)	> 100 µM (inactive)	> 100 µM (inactive)	–
C[C@H]1[C@@H]2C[C@@H]3O[C@@]34[C@H]3CCC5Cc6nc7c(nc6C[C@@]5(C)[C@]3(O)CC(=O)[C@@]24CO[C@]12OC(C)(C)C[C@@H]2O)CC1CC[C@@H]2C3=C[C@H]4O[C@@]5(OC(C)(CO)C[C@@H]5O)[C@H](C)[C@@]4(O)[C@]3(C)[C@@H](O)CC2[C@]1(C)C7 (some centres not stated)	0.024 µM (active)	0.0254 µM (active)	0.0179 µM (active)	0.0343 µM (active)	0.7 µM (active)	0.0655 µM (active)	0.0184 µM (active)	2.77 µM (inactive)	0.0809 µM (active)	0.139 µM (active)	0.0168 µM (active)	0.0168 µM (active)	0.00178 µM (active)	0.00215 µM (active)	0.0108 µM (active)	–	–	0.121 µM
COC(=O)[C@@H]1c2cc3c(c(O)c2[C@@H](OC)C[C@@]1(C)O)C(=O)c1c(O)cc2c(c1C3=O)OC1O[C@@]2(C)[C@H](O)[C@@H](N(C)C)[C@@H]1O	–	0.0764 µM (active)	2.69 µM (inactive)	0.508 µM (active)	0.361 µM (active)	0.257 µM (active)	0.301 µM (active)	0.266 µM (active)	0.26 µM (active)	0.337 µM (active)	0.435 µM (active)	0.522 µM (active)	0.381 µM (active)	0.213 µM (active)	0.257 µM (active)	–	–	0.597 µM
COc1cc(C(C)c2cc3c(cc2OCCO)OCO3)cc(OC)c1OC (configuration not stated)	2.75 µM (inactive)	–	1.6 µM (inactive)	> 100 µM (inactive)	0.538 µM (active)	1.34 µM (inactive)	2.86 µM (inactive)	1.66 µM (inactive)	5.11 µM (inactive)	7.16 µM (inactive)	2.32 µM (inactive)	2.19 µM (inactive)	0.63 µM (active)	0.413 µM (active)	–	10.1 µM (inactive)	18.3 µM (inactive)	0.824 µM
Cn1c2ccccc2c(=O)c2c(O)cc3c(c21)C=CC(C)(C)O3 [NORACRONYCINE]	> 25 µM (inactive)	> 25 µM (inactive)	> 25 µM (inactive)	> 25 µM (inactive)	> 25 µM (inactive)	> 25 µM (inactive)	> 25 µM (inactive)	> 25 µM (inactive)	3.05 µM (inactive)	> 25 µM (inactive)	> 25 µM (inactive)	> 25 µM (inactive)	> 10.2 µM (inactive)	> 25 µM (inactive)	> 13.5 µM (inactive)	–	–	> 25 µM
O=C(O)CCCCCCCCC(=O)O [SEBACIC ACID]	> 500 µM (inactive)	5 µM (inactive)	> 79.3 µM (inactive)	> 500 µM (inactive)	79.3 µM (inactive)	> 79.3 µM (inactive)	> 500 µM (inactive)	> 79.3 µM (inactive)	> 500 µM (inactive)	108 µM (inactive)	108 µM (inactive)	50 µM (inactive)	50 µM (inactive)	79.3 µM (inactive)	> 23.2 µM (inactive)	–	–	99.1 µM

Source: ChEMBL document CHEMBL1201862, “PubChem BioAssay data set” (2004)
